Test system: histamine-induced nasal congestion model
Assay: Histamine-induced nasal congestion model in dogs, oral administration
Format: in vivo, Beagle dogs
Experimental: A histamine-induced nasal congestion model in dogs was performed according to the standard procedure [Tiniakov R. L., Tiniakova O. P., McLeod R. L., Hey J. A., Yeates D. B. Canine model of nasal congestion and allergic rhinitis//J Appl Physiol. 2003. V.94(5). P.1821-1828]. Beagle dogs were injected in the nasal cavity with a 5% histamine solution in a volume of 250 μl/nostril. The volume of the nasal cavity of the right and left nostrils was measured using a rhinometer before and 5, 10, 15, 20, 30, 40, 50 and 60 minutes after administration of histamine. Three experiments were performed, in which Compound I was administered orally once at different times: 1) 30 minutes before administration of histamine; 2) 1 hour before administration of histamine; and 3) 6 hours before administration of histamine, and one experiment was performed, in which Compound I was administered orally once daily for 14 days, the last administration was carried out 1 hour before administration of histamine.

[1] = oral 1 hour before histamine, 0.005 mg/kg, 5 minutes after histamine
[2] = oral 1 hour before histamine, 0.005 mg/kg, 10 minutes after histamine
[3] = oral 1 hour before histamine, 0.005 mg/kg, 15 minutes after histamine
[4] = oral 1 hour before histamine, 0.005 mg/kg, 20 minutes after histamine
[5] = oral 1 hour before histamine, 0.005 mg/kg, 30 minutes after histamine
[6] = oral 1 hour before histamine, 0.005 mg/kg, 40 minutes after histamine
[7] = oral 1 hour before histamine, 0.005 mg/kg, 50 minutes after histamine
[8] = oral 1 hour before histamine, 0.005 mg/kg, 60 minutes after histamine
[9] = oral 1 hour before histamine, 0.005 mg/kg, before histamine administration
[10] = oral 1 hour before histamine, 0.05 mg/kg, 5 minutes after histamine
[11] = oral 1 hour before histamine, 0.05 mg/kg, 10 minutes after histamine
[12] = oral 1 hour before histamine, 0.05 mg/kg, 15 minutes after histamine
[13] = oral 1 hour before histamine, 0.05 mg/kg, 20 minutes after histamine
[14] = oral 1 hour before histamine, 0.05 mg/kg, 30 minutes after histamine
[15] = oral 1 hour before histamine, 0.05 mg/kg, 40 minutes after histamine
[16] = oral 1 hour before histamine, 0.05 mg/kg, 50 minutes after histamine
[17] = oral 1 hour before histamine, 0.05 mg/kg, 60 minutes after histamine
[18] = oral 1 hour before histamine, 0.05 mg/kg, before histamine administration
[19] = oral 1 hour before histamine, 0.54 mg/kg, 5 minutes after histamine
[20] = oral 1 hour before histamine, 0.54 mg/kg, 10 minutes after histamine
[21] = oral 1 hour before histamine, 0.54 mg/kg, 15 minutes after histamine
[22] = oral 1 hour before histamine, 0.54 mg/kg, 20 minutes after histamine
[23] = oral 1 hour before histamine, 0.54 mg/kg, 30 minutes after histamine
[24] = oral 1 hour before histamine, 0.54 mg/kg, 40 minutes after histamine
[25] = oral 1 hour before histamine, 0.54 mg/kg, 50 minutes after histamine
[26] = oral 1 hour before histamine, 0.54 mg/kg, 60 minutes after histamine
[27] = oral 1 hour before histamine, 0.54 mg/kg, before histamine administration
[28] = oral 6 hours before histamine, 0.005 mg/kg, 5 minutes after histamine
[29] = oral 6 hours before histamine, 0.005 mg/kg, 10 minutes after histamine
[30] = oral 6 hours before histamine, 0.005 mg/kg, 15 minutes after histamine
[31] = oral 6 hours before histamine, 0.005 mg/kg, 20 minutes after histamine
[32] = oral 6 hours before histamine, 0.005 mg/kg, 30 minutes after histamine
[33] = oral 6 hours before histamine, 0.005 mg/kg, 40 minutes after histamine
[34] = oral 6 hours before histamine, 0.005 mg/kg, 50 minutes after histamine
[35] = oral 6 hours before histamine, 0.005 mg/kg, 60 minutes after histamine
[36] = oral 6 hours before histamine, 0.005 mg/kg, before histamine administration
[37] = oral 6 hours before histamine, 0.05 mg/kg, 5 minutes after histamine
[38] = oral 6 hours before histamine, 0.05 mg/kg, 10 minutes after histamine
[39] = oral 6 hours before histamine, 0.05 mg/kg, 15 minutes after histamine
[40] = oral 6 hours before histamine, 0.05 mg/kg, 20 minutes after histamine
[41] = oral 6 hours before histamine, 0.05 mg/kg, 30 minutes after histamine
[42] = oral 6 hours before histamine, 0.05 mg/kg, 40 minutes after histamine
[43] = oral 6 hours before histamine, 0.05 mg/kg, 50 minutes after histamine
[44] = oral 6 hours before histamine, 0.05 mg/kg, 60 minutes after histamine
[45] = oral 6 hours before histamine, 0.05 mg/kg, before histamine administration
[46] = oral 6 hours before histamine, 0.54 mg/kg, 5 minutes after histamine
[47] = oral 6 hours before histamine, 0.54 mg/kg, 10 minutes after histamine
[48] = oral 6 hours before histamine, 0.54 mg/kg, 15 minutes after histamine
[49] = oral 6 hours before histamine, 0.54 mg/kg, 20 minutes after histamine
[50] = oral 6 hours before histamine, 0.54 mg/kg, 30 minutes after histamine

## O=C(CC(=O)NCCc1cnc[nH]1)NCCc1cnc[nH]1 [Compound I, N,N′-bis(2-(1H-imidazol-5-yl)ethyl)malonamide]
After a single oral administration, dogs
  onset of the therapeutic effect: ≤ 30 min
[1]
  Volume of the nasal cavity, left nostril: 3.1 ± 0.2$ cm^3
  Volume of the nasal cavity, right nostril: 3.1 ± 0.5$ cm^3
[2]
  Volume of the nasal cavity, left nostril: 2.4 ± 0.4$ cm^3
  Volume of the nasal cavity, right nostril: 2.1 ± 0.1$ cm^3
[3]
  Volume of the nasal cavity, left nostril: 2.2 ± 0.2$ cm^3
  Volume of the nasal cavity, right nostril: 2.8 ± 0.5$ cm^3
[4]
  Volume of the nasal cavity, left nostril: 2.3 ± 0.14$ cm^3
  Volume of the nasal cavity, right nostril: 2.6 ± 0.4$ cm^3
[5]
  Volume of the nasal cavity, left nostril: 2.0 ± 0.2$ cm^3
  Volume of the nasal cavity, right nostril: 3.0 ± 0.5$ cm^3
[6]
  Volume of the nasal cavity, left nostril: 3.6 ± 0.2 cm^3
  Volume of the nasal cavity, right nostril: 3.4 ± 0.2$ cm^3
[7]
  Volume of the nasal cavity, left nostril: 3.3 ± 0.2$ cm^3
  Volume of the nasal cavity, right nostril: 3.7 ± 0.24$ cm^3
[8]
  Volume of the nasal cavity, left nostril: 3.4 ± 0.1$ cm^3
  Volume of the nasal cavity, right nostril: 3.5 ± 0.2$ cm^3
[9]
  Volume of the nasal cavity, left nostril: 3.9 ± 0.2 cm^3
  Volume of the nasal cavity, right nostril: 4.3 ± 0.2 cm^3
[10]
  Volume of the nasal cavity, left nostril: 2.8 ± 0.1$ cm^3
  Volume of the nasal cavity, right nostril: 2.8 ± 0.3$ cm^3
[11]
  Volume of the nasal cavity, left nostril: 3.1 ± 0.24$ cm^3
  Volume of the nasal cavity, right nostril: 3.5 ± 0.24$ cm^3
[12]
  Volume of the nasal cavity, left nostril: 3.1 ± 0.14$ cm^3
  Volume of the nasal cavity, right nostril: 2.6 ± 0.2$ cm^3
[13]
  Volume of the nasal cavity, left nostril: 2.5 ± 0.14$ cm^3
  Volume of the nasal cavity, right nostril: 2.5 ± 0.14$ cm^3
[14]
  Volume of the nasal cavity, left nostril: 3.6 ± 0.24 cm^3
  Volume of the nasal cavity, right nostril: 3.5 ± 0.24 cm^3
[15]
  Volume of the nasal cavity, left nostril: 3.7 ± 0.34 cm^3
  Volume of the nasal cavity, right nostril: 3.7 ± 0.24 cm^3
[16]
  Volume of the nasal cavity, left nostril: 3.2 ± 0.1$ cm^3
  Volume of the nasal cavity, right nostril: 3.2 ± 0.1$ cm^3
[17]
  Volume of the nasal cavity, left nostril: 3.2 ± 0.1$ cm^3
  Volume of the nasal cavity, right nostril: 3.5 ± 0.1$ cm^3
[18]
  Volume of the nasal cavity, left nostril: 4.0 ± 0.3 cm^3
  Volume of the nasal cavity, right nostril: 4.2 ± 0.2 cm^3
[19]
  Volume of the nasal cavity, left nostril: 2.6 ± 0.1$ cm^3
  Volume of the nasal cavity, right nostril: 3.0 ± 0.4$ cm^3
[20]
  Volume of the nasal cavity, left nostril: 3.4 ± 0.14$ cm^3
  Volume of the nasal cavity, right nostril: 3.0 ± 0.24$ cm^3
[21]
  Volume of the nasal cavity, left nostril: 2.5 ± 0.2$ cm^3
  Volume of the nasal cavity, right nostril: 3.0 ± 0.24$ cm^3
[22]
  Volume of the nasal cavity, left nostril: 2.5 ± 0.24$ cm^3
  Volume of the nasal cavity, right nostril: 2.8 ± 0.34$ cm^3
[23]
  Volume of the nasal cavity, left nostril: 3.8 ± 0.24 cm^3
  Volume of the nasal cavity, right nostril: 3.6 ± 0.24$ cm^3
[24]
  Volume of the nasal cavity, left nostril: 3.6 ± 0.14$ cm^3
  Volume of the nasal cavity, right nostril: 3.6 ± 0.24$ cm^3
[25]
  Volume of the nasal cavity, left nostril: 3.3 ± 0.3$ cm^3
  Volume of the nasal cavity, right nostril: 3.4 ± 0.1$ cm^3
[26]
  Volume of the nasal cavity, left nostril: 3.3 ± 0.2$ cm^3
  Volume of the nasal cavity, right nostril: 3.2 ± 0.2$ cm^3
[27]
  Volume of the nasal cavity, left nostril: 4.1 ± 0.1 cm^3
  Volume of the nasal cavity, right nostril: 4.4 ± 0.1 cm^3
[28]
  Volume of the nasal cavity, left nostril: 2.0 ± 0.3$ cm^3
  Volume of the nasal cavity, right nostril: 2.1 ± 0.3$ cm^3
[29]
  Volume of the nasal cavity, left nostril: 1.9 ± 0.1$ cm^3
  Volume of the nasal cavity, right nostril: 2.0 ± 0.1$ cm^3
[30]
  Volume of the nasal cavity, left nostril: 2.4 ± 0.24$ cm^3
  Volume of the nasal cavity, right nostril: 2.4 ± 0.14$ cm^3
[31]
  Volume of the nasal cavity, left nostril: 3.2 ± 0.24$ cm^3
  Volume of the nasal cavity, right nostril: 3.2 ± 0.24$ cm^3
[32]
  Volume of the nasal cavity, left nostril: 3.3 ± 0.14$ cm^3
  Volume of the nasal cavity, right nostril: 3.4 ± 0.14$ cm^3
[33]
  Volume of the nasal cavity, left nostril: 3.3 ± 0.2$ cm^3
  Volume of the nasal cavity, right nostril: 3.4 ± 0.1$ cm^3
[34]
  Volume of the nasal cavity, left nostril: 3.4 ± 0.1$ cm^3
  Volume of the nasal cavity, right nostril: 3.5 ± 0.2$ cm^3
[35]
  Volume of the nasal cavity, left nostril: 3.6 ± 0.2$ cm^3
  Volume of the nasal cavity, right nostril: 3.4 ± 0.2$ cm^3
[36]
  Volume of the nasal cavity, left nostril: 4.4 ± 0.1 cm^3
  Volume of the nasal cavity, right nostril: 4.4 ± 0.2 cm^3
[37]
  Volume of the nasal cavity, left nostril: 2.2 ± 0.1$ cm^3
  Volume of the nasal cavity, right nostril: 2.2 ± 0.2$ cm^3
[38]
  Volume of the nasal cavity, left nostril: 2.4 ± 0.2$ cm^3
  Volume of the nasal cavity, right nostril: 2.3 ± 0.2$ cm^3
[39]
  Volume of the nasal cavity, left nostril: 2.0 ± 0.24$ cm^3
  Volume of the nasal cavity, right nostril: 2.0 ± 0.14$ cm^3
[40]
  Volume of the nasal cavity, left nostril: 3.4 ± 0.14$ cm^3
  Volume of the nasal cavity, right nostril: 3.2 ± 0.24$ cm^3
[41]
  Volume of the nasal cavity, left nostril: 3.4 ± 0.24$ cm^3
  Volume of the nasal cavity, right nostril: 3.4 ± 0.14$ cm^3
[42]
  Volume of the nasal cavity, left nostril: 3.1 ± 0.1$ cm^3
  Volume of the nasal cavity, right nostril: 3.1 ± 0.1$ cm^3
[43]
  Volume of the nasal cavity, left nostril: 3.4 ± 0.1$ cm^3
  Volume of the nasal cavity, right nostril: 3.4 ± 0.1$ cm^3
[44]
  Volume of the nasal cavity, left nostril: 3.6 ± 0.1$ cm^3
  Volume of the nasal cavity, right nostril: 3.5 ± 0.1$ cm^3
[45]
  Volume of the nasal cavity, left nostril: 4.2 ± 0.2 cm^3
  Volume of the nasal cavity, right nostril: 4.1 ± 0.1 cm^3
[46]
  Volume of the nasal cavity, left nostril: 2.7 ± 0.2$ cm^3
  Volume of the nasal cavity, right nostril: 2.7 ± 0.3$ cm^3
[47]
  Volume of the nasal cavity, left nostril: 2.8 ± 0.24$ cm^3
  Volume of the nasal cavity, right nostril: 2.8 ± 0.24$ cm^3
[48]
  Volume of the nasal cavity, left nostril: 2.8 ± 0.14$ cm^3
  Volume of the nasal cavity, right nostril: 2.8 ± 0.24$ cm^3
[49]
  Volume of the nasal cavity, left nostril: 3.4 ± 0.14$ cm^3
  Volume of the nasal cavity, right nostril: 3.5 ± 0.14$ cm^3
[50]
  Volume of the nasal cavity, left nostril: 3.5 ± 0.24$ cm^3
  Volume of the nasal cavity, right nostril: 3.4 ± 0.14$ cm^3
